The source of these data is PMC9196953 (Drug development research, 1999).

A word on the Ki: it is the dissociation constant of the complex between target and ligand, obtained from inhibition or displacement.

Where two headings read alike, the source gives them in different places.

One assay deals with T1, rat A1 receptors (Rattus norvegicus, UniProt P25099).
T1 construct: to A1 receptors from rat cerebral cortical membranes; from tissue; host or cells: rat cerebral cortical membranes
T1 sequence (P25099 1-326): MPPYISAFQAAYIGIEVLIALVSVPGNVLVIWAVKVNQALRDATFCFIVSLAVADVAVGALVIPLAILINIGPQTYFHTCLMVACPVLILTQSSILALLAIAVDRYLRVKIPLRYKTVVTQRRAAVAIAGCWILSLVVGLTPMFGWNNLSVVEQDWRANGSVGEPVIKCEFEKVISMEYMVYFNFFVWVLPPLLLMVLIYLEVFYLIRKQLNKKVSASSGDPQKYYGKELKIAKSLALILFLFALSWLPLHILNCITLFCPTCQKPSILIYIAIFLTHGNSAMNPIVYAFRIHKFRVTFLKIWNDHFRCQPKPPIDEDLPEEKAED
The assay can be described thus: Displacement of [3H]R-PIA binding to A1 receptors in rat brain membranes. The note with it: read-out: Ki rA1. The protocol: (§1) All nonradioactive compounds were initially dissolved in DMSO and diluted with buffer to the final concentration, where the amount of DMSO never exceeded 2%. Incubations were terminated by rapid filtration over Whatman GF/B filters using a Brandell cell harvester. The tubes were rinsed three times with 3 mL buffer each.
(§2) At least six different concentrations of competitor, spanning 3 orders of magnitude adjusted appropriately for the IC50 value of each compound, were used. IC50 values, calculated with the nonlinear regression method implemented in Graph-Pad Prism (San Diego, CA) were converted to apparent Ki values as described by [Linden [1982]]. Hill coefficients of the tested compounds were in the range of 0.8–1.1.
(§3) At A2B receptors, two radioligand binding assays (Table 1) were used. Ki values of xanthine derivatives were determined in displacement of binding of the non-selective radioligands […], 8 (4-(2-[7-amino-2-{furyl}{1,2,4}triazolo{2,3-a}{1,3,5}tr nzyl)-8-phenyloxyacetate-1-propyl-xanthine), at human A2B receptors expressed in HEK-293 cell membranes [[Linden and Jacobson, 1998]]. In order to evaluate selectivity, selected derivatives were subjected to standard binding assays at A1, A2A, and A3 receptors. The initial screening utilized rat brain A1/A2A receptors (with radioligands [^3H]R-PIA and [^3H]CGS-21680), and selected compounds were examined at the recombinant human subtypes (Table 1), using [^3H]CPX ([^3H]8-cyclopentyl-1,3-dipropylxanthine) and ^125I-ZM 241385, ^125I-4-(2-[7-amino-2-[2-furyl][1,2,4]triazolo[2,3-a][1,3,5]triazin-5-yl-amino]ethyl)phenol) [[Palmer et al., 1996]].
In general terms: In a radioligand displacement assay an active substance lowers the binding of a labelled ligand.

For a further assay, the target named is T2, rat A2A receptors (Rattus norvegicus, UniProt P30543).
T2 construct: to A2A receptors from rat striatal membranes; from tissue; host or cells: rat striatal membranes
T2 sequence (P30543 whole entry): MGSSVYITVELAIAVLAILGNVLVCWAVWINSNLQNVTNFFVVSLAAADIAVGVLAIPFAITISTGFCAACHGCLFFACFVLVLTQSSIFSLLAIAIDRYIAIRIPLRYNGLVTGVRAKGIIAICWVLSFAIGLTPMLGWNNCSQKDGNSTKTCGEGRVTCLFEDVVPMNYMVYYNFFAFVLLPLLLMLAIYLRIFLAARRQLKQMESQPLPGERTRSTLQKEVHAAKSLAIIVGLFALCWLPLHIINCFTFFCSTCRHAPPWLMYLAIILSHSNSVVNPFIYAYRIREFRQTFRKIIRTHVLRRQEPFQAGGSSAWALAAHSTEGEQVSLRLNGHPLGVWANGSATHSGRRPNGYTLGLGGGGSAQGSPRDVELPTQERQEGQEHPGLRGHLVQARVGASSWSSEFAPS
Briefly: Displacement of [3H]CGS 21680 binding to A2A receptors in rat striatal membranes. The note with it: read-out: Ki rA2A. As for the experimental part: as §1, §2, §3

The target of a further assay is T3, human A3 receptors (Homo sapiens, UniProt P0DMS8).
T3 construct: expressed in transfected cells; host or cells: HEK-293
T3 sequence (P0DMS8 1-318): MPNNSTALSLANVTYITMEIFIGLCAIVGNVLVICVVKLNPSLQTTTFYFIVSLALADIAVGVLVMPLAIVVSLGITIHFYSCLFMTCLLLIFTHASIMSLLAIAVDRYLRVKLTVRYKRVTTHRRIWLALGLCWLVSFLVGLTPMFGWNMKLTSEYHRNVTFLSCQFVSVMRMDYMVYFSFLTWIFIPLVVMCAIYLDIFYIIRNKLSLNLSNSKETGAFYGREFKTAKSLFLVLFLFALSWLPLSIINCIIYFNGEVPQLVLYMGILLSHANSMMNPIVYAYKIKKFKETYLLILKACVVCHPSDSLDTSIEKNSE
The assay can be described thus: Displacement of [125I]AB-MECA binding at human A3 receptors expressed in HEK cells. To be noted: read-out: Ki hA3. The protocol: as §3

The target of another assay is T4, human A2B receptors (Homo sapiens, UniProt P29275).
T4 construct: expressed in transfected cells; host or cells: HEK-293
T4 sequence (P29275 1-332): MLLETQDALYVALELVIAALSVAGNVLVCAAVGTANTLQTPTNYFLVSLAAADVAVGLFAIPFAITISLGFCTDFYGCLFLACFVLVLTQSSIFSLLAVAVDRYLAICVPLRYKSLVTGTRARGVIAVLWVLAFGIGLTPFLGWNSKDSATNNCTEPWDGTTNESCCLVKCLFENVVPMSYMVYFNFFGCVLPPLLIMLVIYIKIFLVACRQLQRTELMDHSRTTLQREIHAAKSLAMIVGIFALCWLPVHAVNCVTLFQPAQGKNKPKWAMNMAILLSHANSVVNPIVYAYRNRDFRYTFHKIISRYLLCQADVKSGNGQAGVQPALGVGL
The assay can be described thus: Binding at human A2B receptors expressed in HEK-293 cells vs [3H]ZM241385. To be noted: for rA1/hA2B: ratio of Ki rat A1 to Ki human A2B. As for the experimental part:
The plasmid was amplified in competent JM109 cells and plasmid DNA isolated using Wizard Megaprep columns (Promega Corp., Madison, WI).
Colonies were selected by growth of cells in 0.6 mg/mL G418. Transfected cells were maintained in DMEM supplemented with Hams F12 nutrient mixture (1/1), 10% newborn calf serum, 2 mM glutamine, and containing 50 IU/mL penicillin, 50 μg/mL streptomycin, and 0.2 mg/mL Geneticin (G418, Boehringer Mannheim, Indianapolis, IN).
Confluent monolayers of HEK-A2B cells were washed with PBS followed by ice-cold Buffer A (10 mM HEPES, 10 mM EDTA, pH 7.4) with protease inhibitors ([…] benzamidine, […], and […] of each aprotinin, pepstatin, and leupeptin). The cells were homogenized in a Polytron (Brinkmann) for 20 sec, centrifuged at 30,000g, and the pellets washed twice with buffer HE (10 mM HEPES, 1 mM EDTA, pH 7.4 with protease inhibitors). The final pellet was resuspended in buffer HE, supplemented with 10% sucrose and frozen in aliquots at −80°C. For binding assays, membranes were thawed and diluted 5–10-fold with HE to a final protein concentration of approximately 1 mg/mL. […] After incubating for 20 min at room temperature, 50 mL of 10 mg/mL Na-metabisulfite in water was added the quench the reaction. The reaction products were applied to a C18 HPLC column using 4 mM phosphate, pH 6.0/methanol. […] The incubation time was 3 h at 21°C. […] Membranes were filtered on Whatman GF/C filters using a Brandell cell harvester (Gaithersburg, MD) and washed three times over 15–20 sec with ice-cold buffer (10 mM Tris, 1 mM MgCl2, pH 7.4). […] Data from replicate experiments are tabulated as means ± SEM.
At A2B receptors, two radioligand binding assays (Table 1) were used. […] In order to evaluate selectivity, selected derivatives were subjected to standard binding assays at A1, A2A, and A3 receptors.

Where [1] appears, read: HEK-293 cells, vs [3H]ZM241385, read-out: Ki hA2B.
[2] abbreviates: rounded values given in text, read-out: Ki at human A2B receptors.

With `CCCn1c(=O)c2nc(-c3ccc(OCC(=O)NN)cc3)[nH]c2n(CCC)c1=O` [Compound 4c], the figures for the inhibition constant Ki on rat A1 receptors, on rat A2A receptors and at human A3 receptors were 16 ± 0.5 nM, 63.8 ± 21.3 nM and 498 ± 139 nM, respectively.
In the case of `CCCn1c(=O)c2[nH]c(-c3ccc(OCC(=O)NN4C(=O)C[C@H](NC(=O)C(F)(F)F)C4=O)cc3)nc2n(CCC)c1=O` [Compound 11, 8-[4-[(Carboxymethyl)oxy]phenyl]-1,3-di-(n-propyl)xanthine N,N-[((2S)-Trifluoroacetamido)-succinyl]hydrazide], the Ki is 74.3 ± 6.6 nM on rat A1 receptors; 139 ± 32 nM at rat A2A receptors; 30.2 ± 0.5 nM at human A2B receptors (setting [1]); 30 nM on human A2B receptors (setting [2]); 1560 nM on human A3 receptors. Also, the rA1/hA2B at human A2B receptors was found to be 2.5.
With `CCCn1c(=O)c2[nH]c(-c3ccc(OCC(=O)NN4C(=O)CCC(c5ccccc5)C4=O)cc3)nc2n(CCC)c1=O` (stereo not shown) [Compound 12, 8-[4-[(Carboxymethyl)oxy]phenyl]-1,3-di-(n-propyl)xanthine N,N-[(2-Phenyl)glutaryl]hydrazide], the Ki at rat A1 receptors is 3.87 ± 1.2 nM; at rat A2A receptors it was 21.4 ± 6.1 nM; on human A2B receptors (setting [1]), 3.86 ± 0.7 nM; at human A3 receptors, 151 ± 99 nM. Also, the rA1/hA2B at human A2B receptors was determined as 1.0.
For the molecule `CCCn1c(=O)c2[nH]c(-c3ccc(OCC(=O)NN4C(=O)C=C(C)C4=O)cc3)nc2n(CCC)c1=O` [Compound 13, 8-[4-[(Carboxymethyl)oxy]phenyl]-1,3-di-(n-propyl)xanthine N,N-Citraconylhydrazide], the Ki was found to be 203 ± 41 nM on rat A1 receptors, 1230 nM on rat A2A receptors, 144 ± 11 nM at human A2B receptors (setting [1]) and 551 ± 106 nM at human A3 receptors. Further, the rA1/hA2B at human A2B receptors is reported as 1.4.
For `CCCn1c(=O)c2[nH]c(-c3ccc(OCC(=O)NN4C(=O)C=C(c5ccccc5)C4=O)cc3)nc2n(CCC)c1=O` [Compound 16, 8-[4-[(Carboxymethyl)oxy]phenyl]-1,3-di-(n-propyl)xanthine N,N-[(2-Phenyl)maleyl]hydrazide], the Ki is 225 ± 76 nM at rat A1 receptors; 1540 nM on rat A2A receptors; 66.7 ± 37 nM at human A2B receptors (setting [1]); 67 nM at human A2B receptors (setting [2]); 748 ± 234 nM on human A3 receptors. Moreover, the rA1/hA2B at human A2B receptors is on record as 3.4.
As to `CCCn1c(=O)c2[nH]c(-c3ccc(OCC(=O)NN4C(=O)C(c5ccccc5)=C(c5ccccc5)C4=O)cc3)nc2n(CCC)c1=O` [Compound 17, 8-[4-[(Carboxymethyl)oxy]phenyl]-1,3-di-(n-propyl)xanthine N,N-[(1,2-Diphenyl)maleyl]hydrazide], the Ki was found to be 95.8 ± 25.1 nM on rat A1 receptors; 2100 nM at rat A2A receptors; 27.9 ± 8.5 nM on human A2B receptors (setting [1]); 28 nM on human A2B receptors (setting [2]); 3450 nM on human A3 receptors. On human A2B receptors, the rA1/hA2B came to 3.4.
On to `CCCn1c(=O)c2[nH]c(-c3ccc(OCC(=O)NNC(=O)C4CC=CCC4C(=O)O)cc3)nc2n(CCC)c1=O` (stereo not drawn) [Compound 18a, 8-[4-[(Carboxymethyl)oxy]phenyl]-1,3-di-(n-propyl)xanthine N-[2-((1-Carboxy)-cis-4-cyclohexene)-carbonyl]hydrazide], for which the Ki stood at 134 ± 19 nM on rat A1 receptors, 813 ± 299 nM at rat A2A receptors, 51 ± 7 nM on human A2B receptors (setting [1]) and 1060 nM on human A3 receptors. In addition, the rA1/hA2B on human A2B receptors came to 2.6.
For `CCCn1c(=O)c2[nH]c(-c3ccc(OCC(=O)NNC(=O)C4=C(C(=O)O)CCC4)cc3)nc2n(CCC)c1=O` [Compound 19a, 8-[4-[(Carboxymethyl)oxy]phenyl]-1,3-di-(n-propyl)xanthine N-[2-((1-Carboxy)-1-cyclopentene)-carbonyl]hydrazide] the same measures were 81.7 ± 31.2 nM, 708 ± 169 nM, 78.5 ± 20.5 nM, 1180 nM and 1.0.
For `CCCn1c(=O)c2[nH]c(-c3ccc(OCC(=O)NN4C(=O)C5=C(CCC5)C4=O)cc3)nc2n(CCC)c1=O` [Compound 19b, 8-[4-[(Carboxymethyl)oxy]phenyl]-1,3-di-(n-propyl)xanthine N,N-(1-Cyclopentene-1,2-dicarbonyl)-hydrazide] the same measures were 41.3 ± 6.4 nM, 1160 nM, 21.5 ± 1.5 nM, 308 ± 88 nM and 1.9.
For `CCCn1c(=O)c2[nH]c(-c3ccc(OCC(=O)NN4C(=O)C5=C(CCCC5)C4=O)cc3)nc2n(CCC)c1=O` [Compound 20b, 8-[4-[(Carboxymethyl)oxy]phenyl]-1,3-di-(n-propyl)xanthine N,N-(3,4,5,6-Tetrahydrophthaloyl)-hydrazide] the same measures were 61.9 ± 11.3 nM, 415 ± 157 nM, 35.8 ± 0.7 nM, 245 ± 45 nM and 1.7.
In the case of `CCCn1c(=O)c2[nH]c(-c3ccc(OCC(=O)NN4C(=O)CCCC4=O)cc3)nc2n(CCC)c1=O` [Compound 22, 8-[4-[(Carboxymethyl)oxy]phenyl]-1,3-di-(n-propyl)xanthine N,N-Glutarylhydrazide], the Ki at rat A1 receptors was found to be 14 ± 2.3 nM; at rat A2A receptors, 135 ± 39 nM; at human A2B receptors (setting [1]) it was 22 ± 5.5 nM; on human A3 receptors it was 200 ± 45 nM. In addition, the rA1/hA2B at human A2B receptors is 0.6.
For `CCCn1c(=O)c2[nH]c(-c3ccc(OCC(=O)NN4C(=O)CC(O)CC4=O)cc3)nc2n(CCC)c1=O` [Compound 23, 8-[4-[(Carboxymethyl)oxy]phenyl]-1,3-di-(n-propyl)xanthine N,N-(3-Hydroxy)glutarylhydrazide] the same measures were 41.2 ± 16.6 nM, 164 ± 61 nM, 25.7 ± 5.5 nM, 290 ± 88 nM and 1.6.
